From PMC8929122, “Application of a Combined Peptidomics and In Silico Approach for the Identification of Novel Dipeptidyl Peptidase-IV-Inhibitory Peptides in In Vitro Digested Pinto Bean Protein Extract” (Current Issues in Molecular Biology, 2021)
Peptide text beside a SMILES is read from it.

Legend:
rat intestinal DPP-IV = target: T1, rat intestinal DPP-IV (Rattus norvegicus, UniProt P14740); test: In vitro DPP-IV inhibitory activity of synthetic peptides; type: biochemical; conditions: rat intestinal DPP-IV 0.1 U/mL; 0.1 mol/L Tris-HCl pH 7.0; 20 min pre-incubation at 37 °C; glycine-proline-p-nitroanilide 6.4 mmol/L (5 μL); 20 min reaction at 37 °C; absorbance 405 nm; mean ± SD, three replicates; read-out: IC50 value for DPP-IV inhibition
T1 construct: 10 μL of rat intestinal DPP-IV (0.1 U/mL in the assay); from tissue; host or cells: rat intestine
T1 sequence (P14740 whole entry): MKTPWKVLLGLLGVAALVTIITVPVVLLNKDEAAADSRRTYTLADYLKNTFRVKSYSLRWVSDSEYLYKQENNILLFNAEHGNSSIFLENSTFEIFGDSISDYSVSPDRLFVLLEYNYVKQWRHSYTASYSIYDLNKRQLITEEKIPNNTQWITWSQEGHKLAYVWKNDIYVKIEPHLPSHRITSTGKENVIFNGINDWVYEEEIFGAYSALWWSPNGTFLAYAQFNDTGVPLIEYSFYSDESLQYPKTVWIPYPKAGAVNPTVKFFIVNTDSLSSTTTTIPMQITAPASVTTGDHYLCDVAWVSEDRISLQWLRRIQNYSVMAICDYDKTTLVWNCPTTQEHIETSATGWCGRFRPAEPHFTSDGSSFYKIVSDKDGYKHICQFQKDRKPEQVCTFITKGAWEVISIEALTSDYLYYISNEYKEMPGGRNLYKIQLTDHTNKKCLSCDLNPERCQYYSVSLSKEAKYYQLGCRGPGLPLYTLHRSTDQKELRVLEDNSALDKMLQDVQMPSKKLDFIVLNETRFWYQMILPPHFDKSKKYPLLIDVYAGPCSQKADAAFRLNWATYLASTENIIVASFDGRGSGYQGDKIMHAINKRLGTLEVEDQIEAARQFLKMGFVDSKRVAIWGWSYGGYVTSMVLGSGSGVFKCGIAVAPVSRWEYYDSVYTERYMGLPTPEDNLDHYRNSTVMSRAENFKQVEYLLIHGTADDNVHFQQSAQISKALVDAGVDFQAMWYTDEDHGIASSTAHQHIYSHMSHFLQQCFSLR
Protocol: Selected synthetic peptides (Bio-Fab Research, Rome, Italy) were then tested for their DPP-IV-inhibitory activity as reported in Tagliazucchi et al.. Briefly, 145 μL of 0.1 mol/L Tris-HCl buffer (pH 7.0) were mixed with 10 μL of rat intestinal DPP-IV (0.1 U/mL in the assay) and 40 μL of synthetic peptides at different concentrations, in a 96-well plate. The reaction was started after 20 min of pre-incubation at 37 °C by the addition of 5 μL of 6.4 mmol/L glycine-proline-p-nitroanilide. After a further 20 min of reaction at 37 °C, the amount of released p-nitroanilide was measured by reading the absorbance at 405 nm in a microplate reader. Results were expressed as IC50 values (peptide concentration that inhibit the 50% of the enzymatic activity) by plotting the peptide concentration (base-10 logarithm) as a function of the enzyme inhibition percentage.
All data are reported as mean ± standard deviation (SD) for three replicates for each prepared sample. GraphPad Prism 6.0 (GraphPad Software, San Diego, CA, USA) was used for univariate analysis of variance (ANOVA) with Tukey post-hoc test. The differences were considered significant when p < 0.05.

[1] = system: Dipeptidyl peptidase IV (DPP-IV); conditions: Parmigiano Reggiano peptides, previous study; cited from earlier work
Source text: Table 1 Peptides with previously reported biological activity identified in in vitro-digested Pinto bean protein extract. | column: Bioactivity ^1 || The described approach was applied in a previous study on Parmigiano Reggiano samples allowing the selection of 6 candidates to be tested in vitro starting from a pool of 415 peptides identified by peptidomics techniques. […] The high inhibitory potency of SAPI was probably due to the combined presence of an A residue in second position and a P residue in third position. […] The PepSite2 server was used to predict the possible interaction between SAPI and the DPP-IV binding sites by analyzing the enzyme active site residues closer to the peptide amino ...

Compound | IC50 (rat intestinal DPP-IV) | DPP-IV inhibition (in words) [1]
CC[C@H](C)[C@H](NC(=O)[C@@H](N)CO)C(=O)N1CCC[C@H]1C(=O)N[C@@H](CCCNC(=N)N)C(=O)O [SIPR] (H-SIPR-OH) | 189 ± 1.5 µM | 
CC[C@H](C)[C@H](NC(=O)[C@@H]1CCCN1C(=O)[C@H](C)NC(=O)[C@@H](N)CO)C(=O)O [SAPI] (H-SAPI-OH) | 57.7 µM | 
APFPE |  | novel potent DPP-IV inhibitor
CC(C)[C@H](NC(=O)[C@@H](N)Cc1ccccc1)C(=O)N1CCC[C@H]1C(=O)N[C@@H](Cc1c[nH]cn1)C(=O)O [FVPH] (H-FVPH-OH) | 480.6 ± 2.1 µM | 
